We go through five compounds from patent publication US7125564B2, “Water soluble and palatable complexes” (Lavipharm Laboratories, Inc., priority 2001, dated 2006).

For data set [1] the following is noted: cited from earlier work.
The conditions of data set [2]: cited from earlier work; for bioavailability: oral administration.
A short description of a further data set: physchem. The settings on record: thermodynamic from solid.
The conditions of data set [3]: cited from earlier work. The source holds these as a separate data set.
The nature of data set [4]: Water solubility of active agent with and without glycyrrhizin ammonium (24 h rotation, filtration, HPLC). As to conditions: versus control with zero glycyrrhizin, 0.1 M glycyrrhizin ammonium, distilled water, room temperature.

Values after ≈ are worked out from the molar mass of the structure shown. Counter-ions that a name gives are not always drawn.

As to `CCCc1nn(C)c2c(=O)[nH]c(-c3cc(S(=O)(=O)N4CCN(C)CC4)ccc3OCC)nc12` [Sildenafil citrate], the solubility in data set [1] (formulated as a regular film tablet) was 6 to 8 mg/mL. Also, in data set [2], the bioavailability result is listed as “about 40%”.

In the case of `NC(N)=Nc1nc(CSCCC(N)=NS(N)(=O)=O)cs1` [famotidine, N′(aminosulfonyl)-3-[[[2-[(diaminomethylene)amino]-4-thiazolyl]methyl]thio] propanimidamide], in data set [1], the intrinsic water solubility is listed as 0.278 mg/mL and the pKa is on record as 6.8. Moreover, the solubility in ethanol entry in data set [1] (ethanol) was “insoluble”. Also, the “solubility in glacial acetic acid” value in data set [1] (glacial acetic acid) is reported as “freely soluble”. Moreover, the solubility in water result in data set [1] (water) is “very slightly soluble”. Moreover, the “time to peak plasma concentration” value in data set [2] (after oral administration) was 1 to 3.5 h. Moreover, the bioavailability result in data set [2] was “approximately 43%”. In data set [2] (tablet formulation), the “effect of food on bioavailability” value was “unaffected by food”. In “physchem” (water), this compound displayed a solubility at 24 h of under 1000 µg/mL.

With `O=C1CC2(CCCC2)CC(=O)N1CCCCN1CCN(c2ncccn2)CC1` [buspirone, 8-[4-[4-(2-pyrimidinyl)1-piperazinyl]butyl]-8-azaspiro(4,5)-decane-7,9-dione], the biological half-life in data set [3] (in man) was 2–11 hours. Moreover, the “interindividual variation of the maximum plasma concentration” value in data set [3] (oral) is “up to 10 fold”. The solubility at 24 h in the data set “physchem” (aqueous with cosolvent or surfactant or cyclodextrin) was found to be 44000 µg/mL (≈ 114000 µM); in the data set “physchem” (water) it was 380 µg/mL (≈ 986 µM).

On to `CC(C)(C)c1ccc(C(O)CCCN2CCC(C(O)(c3ccccc3)c3ccccc3)CC2)cc1` (stereo not drawn) [terfenadine], for which the “fraction of a tablet given by mouth changed to metabolites” value in data set [2] (oral tablet, first-pass effect) is on record as 99.5%.

“5-[-2-ethoxy-5-(4-methylpiperazin-1ylsulphonyl)phenyl]-1-methyl -3-n-propyl-1,6-dihydro-7H-pyrazolo[4,3-d]pyrimidine [sildenafil]”: the “increase of solubility through complexation with glycyrrhizin” value is given as 200 fold in data set [4] and “more than 200 fold” in data set [4] (listed as sildenfil).
